Measured values from patent publication US10227315B2, “Mitochondrial uncouplers for treatment of metabolic diseases and cancer” (RUTGERS, THE STATE UNIVERSITY OF NEW JERSEY, priority 2016, dated 2019).
pEC50: −log10 of the molar value.

Key:
[1] = system: NIH-3T3 cells, or HepG2 cells; assay: Mitochondrial membrane potential assay, TMRE staining; type: cell-based; conditions: 2 h; two hours treatment, TMRE 100 nM; read-out: EC50, mitochondrial membrane potential reduction (TMRE staining reduced to about 50%)
Experimental: Mitochondrial uncoupling may also lead to a reduction of mitochondrial membrane potential. We performed mitochondrial membrane potential assay using TMRE (tetramethylrhodamine ethyl ester) staining method with cultured mammalian cells, the NIH-3T3 cells, or HepG2 cells. Cells were seeded onto 6-well plates and cultured in DMEM medium supplemented with 10% fetal bovine serum and 2 mM glutamine. Cells were allowed to grow to logarithmic growth phase prior to experiments. The cells were treated with each individual compound at various concentrations for two hours, followed by staining with TMRE at final concentration of 100 nM for 15 minutes. The cells were then washed once with PBS, and examined under fluorescence microscopy. Cells treated with various concentrations of niclosamide ethanolamine were used as positive control. Reduction of mitochondrial TMRE staining was estimated as a quantification of mitochondrial uncoupling activity. […] The following table (Table II) summarizes the activity of individual compounds in reducing mitochondrial membrane potential in cultured mammalian cells.

[2] = system: Human colon cancer HCT116 cell line and human lung cancer cell line H1299; assay: Cancer cell growth inhibition, NCI protocol, SRB staining; type: cell-based; conditions: 48 h incubation, HCT116 and H1299 cells, read-out: GI50, 50% growth inhibition activity
Experimental: The effect of example compounds on cancer cell growth was evaluated. The cell growth inhibition assays were performed using a protocol standardized by National Cancer Institute (NCI) for evaluating anti-cancer drugs (https://dtp.cancer.gov/discovery_development/nci-60/methodology.htm). Human colon cancer HCT116 cell line and human lung cancer cell line H1299 were used for the assays. The human tumor cells were inoculated into 96 well microtiter plates. After cell inoculation, the microtiter plates were incubated for cell growth for 24 h prior to addition of compounds. After 24 h, two plates of each cell line were fixed in situ with TCA, to represent a measurement of the cell population for each cell line at the time of compound addition (Tz). Test compounds were solubilized in dimethyl sulfoxide, At the time of test compound addition, five 10-fold or ½ log serial dilutions were made to provide a total of five test compound concentrations plus control. Aliquots of 100 μl of these different test compound dilutions were added to the appropriate microtiter wells already containing 100 μl of medium, resulting in the required final test compound concentrations. Following test compound addition, the plates were incubated for an additional 48 h. The assay was terminated by the addition of cold TCA, Cells were fixed in situ with 50 μl of cold 50% (w/v) TCA (final concentration, 10% TCA), washed five times with tap water and air dried. Sulforhodamine B (SRB) solution (100 ul) at 0.4% (w/v) in 1% acetic acid was added to each well, and plates were incubated for 10 minutes at room temperature. After staining, unbound dye was removed by washing five times with 1% acetic acid and the plates were air dried. […] Using the seven absorbance measurements [time zero, (Tz), control growth, (C), and test growth in the presence of compound at the five concentration levels (Ti)], the percentage growth was calculated at each of the test compound concentrations levels.

Cancer cells = assay: Clonogenicity of cancer cells, colony counting; type: cell-based; conditions: 200 cells per well, 10 days
Experimental: The impact of example compounds on clonogenicity was analyzed. Cancer cells were plated in 6-well plates at 200 cells per well. Cells were treated with individual compounds at various concentrations. Cells were maintained with changes of the medium plus compounds for 10 days. The colonies were then fixed in 1:3 Acetic acid—Methanol solution for 5 minutes, stained with 0.02% crystal violet for 20 minutes and counted.

[3] = system: mouse myoblast C2C12 cells; assay: Oxygen consumption rate (OCR) assay with Seahorse XF96 or XF24, mitochondrial uncoupling; type: cell-based; conditions: 10% fetal bovine serum, in the presence of oligomycin 2.5 μM, read-out: Cmin (minimal concentration to induce ATP synthase-independent OCR increase)
Source text: By definition, mitochondrial uncoupling is the decoupling of mitochondrial electron transport chain activity (mitochondrial oxidation) from ATP synthesis by mitochondrial ATP synthase. Technically, mitochondrial uncoupling activity is defined by the ability of a chemical compound to induce oxygen consumption of cells or isolated mitochondria in the presence of a mitochondrial ATP synthase inhibitor such as oligomycin. Accordingly, we determined mitochondrial uncoupling activity by oxygen consumption rate (OCR) assay with a Seahorse XF96 or a Seahorse XF24 instrument following the vendor's instruction, using mouse myoblast C2C12 cells growing in medium containing 10% fetal bovine serum. […] The minimal concentration (Cmin) of each compound under which OCR is induced in the presence of oligomycin, was determined.

[4] = system: mouse pancreatic cancer cell Panc 2 cells, or human pancreatic cancer Panc 1 cells; assay: Cell cycle progression (G0/G1 arrest), PI staining, flow cytometry; type: cell-based; conditions: 48 h treatment
Experimental: The effect of example compounds on cell cycle progression was analyzed. The tumor cells, mouse pancreatic cancer cell Panc 2 cells, or human pancreatic cancer Panc 1 cells, were treated with the individual compounds at concentrations that were efficacious for mitochondrial uncoupling for 48 h, whereas the control group was treated with vehicle DMSO. Cells were then fixed with ice-cold 70% ethanol on ice for 30 minutes. After that, 5 μl of propidium iodide (PI) (Sigma, P 4170, 1 mg/ml) solution and 50 μl of RNAse A (Sigma, R-4875) solutions were added to the fixed cells, which were then kept for 30 minutes in the dark at room temperature. The cell cycle profile of the cells was analyzed by flow cytometry. […] Table IV below summarizes the activity of other example compounds on inducing G0/G1 cell cycle arrest.

[5] = system: HFD-induced diabetic mouse model; assay: High-fat diet (HFD)-induced fatty liver and diabetic mouse model; type: in vivo; conditions: HFD containing 600 ppm compound
Source text: To test the efficacy of compounds in treating type 2 diabetes in vivo, we used Compound 28 as an example, and determined its effect in reducing blood glucose, reducing blood insulin concentration, improving insulin sensitivity and reducing fatty liver in a clinically relevant mouse model, the HFD-induced fatty liver and diabetic model. C57B6/J male mice were fed HFD (60% calorie from fat) for 4 months, starting at age of 2 months, to induce high blood glucose, high blood insulin, and insulin tolerance symptoms of type 2 diabetes as well as fatty liver. The mice then either continued with HFD or with HFD containing 600 ppm Compound 28. Blood glucose, blood insulin levels were measured and glucose tolerance assay was performed to measure insulin sensitivity. The mice were sacrificed and the effect of Compound 28 on fatty liver development was evaluated by comparing the liver weight.

[6] = system: Panc 2 cells injected into the spleen of NOD-scid mice; assay: Hepatic metastasis of pancreatic cancer mouse model; type: in vivo; conditions: chow containing 750 ppm compound
Experimental: The in vivo anti-cancer efficacy of an example compound, Compound 28, was examined using a well-established hepatic metastasis of pancreatic cancer mouse model. The mouse pancreatic cancer cells, Panc 2 cells (0.25 million cells), were injected into the spleen of immune compromised NOD-scid mice. The mice were randomized to two groups (n=6 each group), one group was fed normal chow, the second group was fed chow containing 750 ppm Compound 28. Three weeks later, mice were sacrificed and the hepatic metastasis of the pancreatic cancer was observed (FIGS. 5A-5B) and quantified (FIGS. 6A-6B) in control and Compound 28 treated mice.

Row | SMILES | pEC50 [1] | GI50 [2] | IC95, Concentration that reduces clonogenicity by 95% (Cancer cells) | minimal effective concentration [3] | effective concentration that can arrest cell cycle at G0/G1 phase [4] | further results
1 | CCc1cc(Cl)cc(C(=O)Nc2nc3ccc(C(F)(F)F)cc3s2)c1O [Compound 27, 5-Chloro-3-ethyl-2-hydroxy-N-(6-(trifluoromethyl)benzo[d]thiazol-2-yl)benzamide] | > 5.00 | < 10 µM | *** (*** <10 μM) | < 10 µM | *** (*** <10 μM) | –
2 | Cc1cc(Cl)cc(C(=O)Nc2nc3ccc(C(F)(F)F)cc3s2)c1O [Compound 1, 5-Chloro-2-hydroxy-3-methyl-N-(6-(trifluoromethyl)benzo[d]thiazol-2-yl)benzamide] | – | – | *** (*** <10 μM) | – | *** (*** <10 μM) | –
3 | CC(C)c1cc(Cl)cc(C(=O)Nc2nc3ccc(C(F)(F)F)cc3s2)c1O [Compound 38, 5-Chloro-2-hydroxy-3-isopropyl-N-(6-(trifluoromethyl)benzo[d]thiazol-2-yl)benzamide] | > 5.00 | < 10 µM | *** (*** <10 μM) | < 10 µM | *** (*** <10 μM) | –
4 | Cc1cc(Cl)cc(C(=O)Nc2nc3ccc(C(F)(F)F)cc3s2)c1O [Compound 28, 5-Chloro-2-hydroxy-3-methyl-N-(6-(trifluoromethyl)benzo[d]thiazol-2-yl)benzamide ethanolamine] | – | < 10 µM | – | < 10 µM | – | blood glucose concentration ([5]; C57B6/J male mice): markedly reduced; blood insulin concentration ([5]; C57B6/J male mice): markedly reduced; fatty liver weight caused by high fat diet ([5]; C57B6/J male mice): reduced fatty liver weight; insulin sensitivity ([5]; C57B6/J male mice): improves insulin sensitivity; plasma concentration [5]: at an efficacious concentration that uncouples mitochondria; blood plasma concentrations [6]: in the range of efficacious concentration for uncoupling mitochondria; hepatic tumor metastasis ([6]; three weeks): little or no hepatic tumor metastasis; metastatic tumor volume ([6]; three weeks): dramatically reduced; number of metastatic tumor nodules ([6]; three weeks): dramatically reduced
5 | O=C(Nc1nc2c(F)cc(F)cc2s1)c1cc(Cl)ccc1O [Compound 23, 5-Chloro-N-(4,6-difluorobenzo[d]thiazol-2-yl)-2-hydroxybenzamide] | – | < 10 µM | – | < 10 µM | – | –
6 | Cc1cc(Cl)cc(C(=O)Nc2nc3c(C(F)(F)F)cccc3s2)c1O [Compound 31, 5-Chloro-2-hydroxy-3-methyl-N-(4-(trifluoromethyl)benzo[d]thiazol-2-yl)benzamide] | – | < 10 µM | – | < 10 µM | – | –
7 | Cc1cc(Cl)cc(C(=O)Nc2nc3c(F)cc(F)cc3s2)c1O [Compound 40, 5-Chloro-N-(4,6-difluorobenzo[d]thiazol-2-yl)-2-hydroxy-3-methylbenzamide] | > 5.00 | < 10 µM | – | < 10 µM | – | –
8 | O=C(Nc1nc2c(C(F)(F)F)cc(F)cc2s1)c1cc(Cl)ccc1O [Compound 24, 5-Chloro-N-(6-fluoro-4-(trifluoromethyl)benzo[d]thiazol-2-yl)-2-hydroxybenzamide] | > 5.00 | < 10 µM | – | < 10 µM | – | –
